Measured values reported in ChEMBL document CHEMBL2086339 (J Med Chem, 2012).
Converted amounts (≈) assume the structure as drawn.

How the values were obtained:
[1] = Oral bioavailability in Long Evans rat at 20 mg/kg; type: ADME, organism-based; conditions: in vivo
[2] = Metabolic stability in rat plasma assessed as compound remaining at 250 uM after 3 hrs by LC-ESI-MS-MS analysis; type: ADME, cell-free; conditions: read-out: Stability
[3] = AUC (0 to infinity) in Long Evans rat at 20 mg/kg, po; type: ADME, organism-based; design: time infinity, dose 20 mg/kg, route oral; conditions: plasma
[4] = Intrinsic clearance in rat liver microsomes assessed per mg of protein at 1 uM by UPLC/TOF-MS analysis; type: ADME, Microsome; conditions: read-out: CLH
[5] = Cmax in Long Evans rat at 20 mg/kg, po; type: ADME, organism-based; design: dose 20 mg/kg, route oral; conditions: in vivo
[6] = Tmax in Long Evans rat at 20 mg/kg, po; type: ADME, organism-based; design: dose 20 mg/kg, route oral; conditions: in vivo
[7] = Ratio of drug level in brain to plasma in Long Evans rat at 10 mg/kg, po; type: ADME, organism-based; design: dose 10 mg/kg, route oral; conditions: read-out: BPR
[8] = Cmax in Long Evans rat brain at 10 mg/kg, po; type: ADME, organism-based; design: dose 10 mg/kg, route oral
[9] = Solubility of the compound at pseudo-thermodynamic equilibrium after 24 hrs by UPLC/UV/TOF-MS analysis at pH 7.4; type: physicochemical; conditions: buffer

solubility thermodynamic at 24 h [9] | Structure (SMILES) | other results
170 µM (≈ 70.3 µg/mL) | COc1ccc(-c2cc(NC(=O)CCCCN3CCCN(C(C)=O)CC3)[nH]n2)cc1 | bioavailability [1]: 12%; remaining at 3 h, 250 µM [2]: 55%; AUC(0-inf) [3]: 1.37 µM·h; microsomal CLint at 1 µM [4]: 13 µL/min/mg; Cmax [5]: 180 nM; Tmax [6]: 49.8 min; Kp [7]: 0.38; Cmax [8]: 3.7 ng/g
151 µM (≈ 64.6 µg/mL) | COc1ccc(-c2n[nH]c(NC(=O)CCCCN3CCCN(C(C)=O)CC3)c2C)cc1 | 
128 µM (≈ 54.7 µg/mL) | COc1ccc(-c2cc(NC(=O)C(C)CCCN3CCCN(C(C)=O)CC3)[nH]n2)cc1 (stereo unspecified) | remaining at 3 h, 250 µM [2]: > 99%
193 µM (≈ 79.8 µg/mL) | COc1ccc(-c2c[nH]c(NC(=O)CCCCN3CCCN(C(C)=O)CC3)n2)cc1 | 
182 µM (≈ 65.7 µg/mL) | O=C(CCCCN1CCCCC1)Nc1cc(-c2ccc(Cl)cc2)n[nH]1 | 
219 µM (≈ 78.1 µg/mL) | COc1ccc(-c2cc(NC(=O)CCCCN3CCCCC3)[nH]n2)cc1 | 
213 µM (≈ 75.9 µg/mL) | COc1cccc(-c2cc(NC(=O)CCCCN3CCCCC3)[nH]n2)c1 | 
178 µM (≈ 63.5 µg/mL) | COc1ccccc1-c1cc(NC(=O)CCCCN2CCCCC2)[nH]n1 | 
188 µM (≈ 69.7 µg/mL) | COc1ccc(-c2n[nH]c(NC(=O)CCCCN3CCCCC3)c2C)cc1 | 
237 µM (≈ 81.6 µg/mL) | O=C(CCCCN1CCCCC1)Nc1cc(-c2ccc(F)cc2)n[nH]1 | 
144 µM (≈ 58.4 µg/mL) | O=C(CCCCN1CCCCC1)Nc1cc(-c2ccc(Br)cc2)n[nH]1 | 
226 µM (≈ 74 µg/mL) | O=C(CCCCN1CCCCC1)Nc1cc(-c2ccncc2)n[nH]1 | 
157 µM (≈ 61.9 µg/mL) | O=C(CCCCN1CCCCC1)Nc1cc(-c2ccc(C(F)(F)F)cc2)n[nH]1 | 
250 µM (≈ 79.1 µg/mL) | O=C(CCCCN1CCCCC1)Nc1cc(-c2ccco2)n[nH]1 | 
198 µM (≈ 73.4 µg/mL) | COc1ccc(-c2cc(NC(=O)CCCCN3CCC(C)CC3)n[nH]2)cc1 | 
176 µM (≈ 63.1 µg/mL) | COc1ccc(-c2cc(NC(=O)CCCCN3CCOCC3)[nH]n2)cc1 | 
92 µM (≈ 34.2 µg/mL) | COc1ccc(-c2cc(NC(=O)CCCCN3CCNC(=O)C3)[nH]n2)cc1 | 
184 µM (≈ 73.5 µg/mL) | COc1ccc(-c2cc(NC(=O)CCCCN3CCC(C(N)=O)CC3)[nH]n2)cc1 | 
133 µM (≈ 49.3 µg/mL) | COc1ccc(-c2cc(NC(=O)CCCCN3CCCCCC3)n[nH]2)cc1 | 
176 µM (≈ 65.6 µg/mL) | COc1ccc(-c2cc(NC(=O)CCCCN3CCCOCC3)[nH]n2)cc1 | 
153 µM (≈ 56.8 µg/mL) | COc1ccc(-c2cc(NC(=O)CCCCN3CCCNCC3)[nH]n2)cc1 | 
117 µM (≈ 45.1 µg/mL) | COc1ccc(-c2cc(NC(=O)CCCCN3CCNC(=O)CC3)[nH]n2)cc1 | 
